{
  "source": "paper PMC9558617",
  "about": "(ACS infectious diseases, 2022)",
  "data": [
    {"test_system": "Mtb WT", "test": "microbe, parasite or virus in culture", "format": "cell-based, Mycobacterium tuberculosis", "details": "not given", "units": {"MIC WT": "µM"}, "values": [
      {"compound": "CC1(C)S[C@@H]2[C@H](NC(=O)[C@H](N)c3ccccc3)C(=O)N2[C@H]1C(=O)O", "note": "[Ampicillin]", "MIC WT": ">50"},
      {"compound": "Capreomycin", "MIC WT": 0.78}
    ]},
    {"test_system": "Mtb WT", "test": "microbe, parasite or virus in culture", "format": "cell-based, Mycobacterium tuberculosis", "details": "Mycobacterium tuberculosis", "units": {"MIC": "µM"}, "values": [
      {"compound": "CC1(C)S[C@@H]2[C@H](NC(=O)[C@H](N)c3ccccc3)C(=O)N2[C@H]1C(=O)O", "note": "[Ampicillin]", "MIC": 2.3}
    ]},
    {"test_system": "Mtb WT", "test": "microbe, parasite or virus in culture", "format": "cell-based, Mycobacterium tuberculosis", "details": "Mycobacterium tuberculosis, read-out: MIC WT", "units": {"MIC": "µM"}, "values": [
      {"compound": "CC1(C)S[C@@H]2[C@H](NC(=O)[C@H](N)c3ccccc3)C(=O)N2[C@H]1C(=O)O", "note": "[Ampicillin]", "MIC": "> 50"},
      {"compound": "COc1nc2ccc(Br)cc2cc1[C@@H](c1ccccc1)[C@@](O)(CCN(C)C)c1cccc2ccccc12", "note": "[Bedaquiline]", "MIC": 0.31},
      {"compound": "CC(C)/N=c1\\cc2n(-c3ccc(Cl)cc3)c3ccccc3nc-2cc1Nc1ccc(Cl)cc1", "note": "[Clofazimine]", "MIC": 0.16},
      {"compound": "N[C@@H]1CON=C1O", "note": "[D-Cycloserine]", "MIC": 4.7},
      {"compound": "C[C@]1(COc2ccc(N3CCC(Oc4ccc(OC(F)(F)F)cc4)CC3)cc2)Cn2cc([N+](=O)[O-])nc2O1", "note": "[Delamanid]", "MIC": 0.0031},
      {"compound": "CC[C@@H](CO)NCCN[C@@H](CC)CO", "note": "[Ethambutol]", "MIC": 1.6},
      {"compound": "CCc1cc(C(N)=S)ccn1", "note": "[Ethionamide]", "MIC": 0.3},
      {"compound": "C[C@@H](O)[C@H]1C(=O)N2C(C(=O)O)=C(SCCN=CN)C[C@H]12", "note": "[Imipenem]", "MIC": 0.39},
      {"compound": "NNC(=O)c1ccncc1", "note": "[Isoniazid]", "MIC": 0.31},
      {"compound": "CC(=O)NC[C@H]1CN(c2ccc(N3CCOCC3)c(F)c2)C(=O)O1", "note": "[Linezolid]", "MIC": 0.78},
      {"compound": "C[C@@H](O)[C@H]1C(=O)N2C(C(=O)O)=C(S[C@@H]3CN[C@H](C(=O)N(C)C)C3)[C@H](C)[C@H]12", "note": "[Meropenem]", "MIC": 1.2},
      {"compound": "COc1c(N2C[C@@H]3CCCN[C@@H]3C2)c(F)cc2c(=O)c(C(=O)O)cn(C3CC3)c12", "note": "[Moxifloxacin]", "MIC": 0.12},
      {"compound": "CO[C@H]1/C=C/O[C@@]2(C)Oc3c(C)c(O)c4c(O)c(c(/C=N/N5CCN(C)CC5)c(O)c4c3C2=O)NC(=O)/C(C)=C\\C=C\\[C@H](C)[C@H](O)[C@@H](C)[C@@H](O)[C@@H](C)[C@H](OC(C)=O)[C@@H]1C", "note": "[Rifampicin]", "MIC": 0.012},
      {"compound": "[H]/N=C(/N)N[C@H]1[C@H](O)[C@@H](O)[C@H](O[C@@H]2O[C@@H](C)[C@](O)(C=O)[C@H]2O[C@@H]2O[C@@H](CO)[C@H](O)[C@@H](O)[C@@H]2NC)[C@@H](N/C(N)=N\\[H])[C@@H]1O", "note": "[Streptomycin]", "MIC": 0.46},
      {"compound": "CN[C@H](CC(C)C)C(=O)N[C@H]1C(=O)N[C@@H](CC(N)=O)C(=O)N[C@H]2C(=O)N[C@H]3C(=O)N[C@H](C(=O)N[C@H](C(=O)O)c4cc(O)cc(O)c4-c4cc3ccc4O)[C@H](O)c3ccc(c(Cl)c3)Oc3cc2cc(c3O[C@@H]2O[C@H](CO)[C@@H](O)[C@H](O)[C@H]2O[C@H]2C[C@](C)(N)[C@H](O)[C@H](C)O2)Oc2ccc(cc2Cl)[C@H]1O", "note": "[Vancomycin]", "MIC": 5},
      {"compound": "Nc1ccc(C(=O)O)c(O)c1", "note": "[p-Aminosalicylic acid]", "MIC": 0.3}
    ]},
    {"test_system": "PanE KPR from E. coli", "test": "not given", "details": "literature values; cited from earlier work", "units": {"Km": "µM"}, "values": [
      {"compound": "CC(C)(CO)C(=O)C(=O)O", "note": "[ketopantoate]", "Km": "30 to 120"},
      {"compound": "NADPH", "Km": "4 to 7"}
    ]},
    {"test_system": "Mtb H37Rv", "test": "microbe, parasite or virus in culture", "format": "cell-based", "details": "Mycobacterium tuberculosis, 168 h, read-out: MIC 7H9/ADC/Tw", "units": {"MIC": "µM"}, "values": [
      {"compound": "N[C@H](Cc1ccccc1)C(=O)O", "note": "[D-Phe, D-phenylalanine]", "MIC": "> 310"}
    ]},
    {"test_system": "CC(C)(CO)C(=O)C(=O)O", "test": "purified protein, by the assay type", "details": "not given", "units": {"Km": "µM"}, "values": [
      {"compound": "MtbPanG (Rv3603c) (Mycobacterium tuberculosis H37Rv)", "Km": "24 ± 2"}
    ]}
  ]
}
